≈ marks a conversion by molar mass, not a printed value. Where two headings read alike, the source gives them in different places.
How the values were obtained:
[1] = cited from earlier work
[2] = μFLUX dissolution-permeation flux experiment; conditions: for kdiss: calculated from the initial dissolution rate in μFLUX; for Ratio (fed/fasted) CD,final / Ratio (fed/fasted) JμFLUX: FeSSIF/FaSSIF, μFLUX dose 1/10 of the clinical dose; for fraction unbound: pH 6.5, fu; for fraction unbound / fu: calculated by Eq. (9) (Sdissolv,u/Sdissolv); for CD,final: measured after filtration, 1/10 of clinical dose, mean ± S.D., N = 3; for Pep,u,μFLUX: Peff,μFLUX/fu; for JμFLUX: average of 90 to 120 min (pranlukast 210 to 240 min); for Peff,μFLUX: calculated based on CD,final; for Time after which CD reached a plateau: donor solution
[3] = Equilibrium solubility measurement (shake-flask) in blank FaSSIF, FaSSIF, FeSSIF; format: physicochemical; conditions: for solubility at 72 h: thermodynamic from solid, pH 6.5, 37°C, mean ± S.D., N = 3; for Ratio (fed/fasted) Sdissolv: FeSSIF/FaSSIF, corresponds to Fafed/Fafasted predicted by Eq. (18)
Procedure: A shake-flask method was used for equilibrium solubility measurement. Each drug (10 mg) was added to the 15 mL test tube. Blank FaSSIF (28.7 mM phosphate buffer, pH 6.5 adjusted by NaOH), FaSSIF (3 mM TC, 0.75 mM EL in blank FaSSIF), or FeSSIF (15 mM TC, 3.75 mM EL in blank FaSSIF) was added. The test tube was placed horizontally in a reciprocal shaker. After shaking for 72 h at 37°C (at 90 rpm, motion width: 2.5 cm), the sample was filtered (hydrophilic PVDF, φ = 4.0 mm, pore size: 0.22 µm, Merck). The first few droplets were discarded to avoid filter adsorption. The concentration of each drug was measured by UV absorbance. […] After measuring the final pH (9615S-10D Standard ToupH electrode (HORIBA Advanced Techno Co., Ltd., Kyoto, Japan)), the residual particles were collected by vacuum filtration and analyzed by powder X-ray diffraction (PXRD) (Supplemental Information Figure S1).

[4] = FaRLS diagnosis by Fa equation and Peff equation (Table S3, dose number); conditions: for Dose number, Fasted / Dose number, Fed: clinical dose; for Dose number, Fasted: Sdissolv in FaSSIF; for Dose number, Fed: Sdissolv in FeSSIF; for fraction unbound: human, bile micelles in FaSSIF, pH 6.5
[5] = pKa measurement (SiriusT3, UV-metric/pH-metric titration); format: physicochemical; conditions: ionic strength 0.168 mol/L, 37°C
Procedure: The pKa measurements were performed using a SiriusT3 automatic titrator, with a spectrometric (UV-metric) or titration (pH-metric) method. The UV-metric method used a fiber optic dip probe, a deuterium lamp UV light source, and a photodiode array detector to capture the absorption spectra of a sample solution over the course of three titrations, across the pH range 2.0–12.0. […] Titrations were carried out under a controlled temperature of 37 ± 0.2°C.
SiriusT3 software v2.0 was used to apply principal component analysis to the spectral data to resolve the molar absorptivity spectra of each sample species and determine the psKa values of the compounds in the co-solvent. The pKa values under aqueous conditions were calculated from the co-solvent data using the Yasuda-Shedlovsky extrapolation method.
Additional potentiometric titrations were performed for each drug, which confirmed that no additional non-UV active pKas were present within the titration pH range.

[6] = clinical AUC ratio fed/fasted, humans; cited from earlier work
[7] = assumed to be the same as Caco-2 Papp, cited from earlier work
[8] = Octanol-water partition/distribution coefficient (logPoct, logDoct); format: physicochemical; conditions: calculated from logPoct and pKa using the Henderson-Hasselbalch equation
From the text: Table II Physicochemical Properties and Caco-2 Permeability of Model Drugs | column: logDoct,pH 6.5^c

[9] = parameters: method as in PMID 20307655, PMID 19465123, PMID 17828749, PMID 23994640; conditions: pH 6.5; cited from earlier work
Caco-2 = system: Caco-2; parameters: method as in PMID 9795088, PMID 10767597, PMID 15032311; conditions: cited from earlier work
[10] = parameters: method as in PMID 31863733; conditions: previous prediction; cited from earlier work
[11] = bile micelles in FaSSIF, FaSSIF
[12] = bile micelles in FeSSIF, FeSSIF
[13] = FaSSIF, read-out: Solubility, FaSSIF
[14] = FeSSIF, read-out: Solubility, FeSSIF
[15] = blank FaSSIF, read-out: Solubility, Blank FaSSIF

Structure (SMILES)	Ratio (fed/fasted) CD,final [2]	Ratio (fed/fasted) JμFLUX [2]	fraction unbound [2, 11]	fraction unbound [2, 12]	CD,final ([2]; donor FaSSIF pH 6.5) [µg/mL]	Pep,u,μFLUX ([2]; donor FaSSIF)	JμFLUX ([2]; donor FaSSIF)	Peff,μFLUX ([2]; donor FaSSIF)	CD,final ([2]; donor FeSSIF pH 6.5)	Pep,u,μFLUX ([2]; donor FeSSIF)	JμFLUX ([2]; donor FeSSIF)	Peff,μFLUX ([2]; donor FeSSIF)	Time after which CD reached a plateau [2] [min]	Ratio (fed/fasted) Sdissolv [3]	Dose number, Fasted [4]	Dose number, Fed [4]	logDoct,pH 6.5 [8]	logPoct [1]	Ratio (fed/fasted) AUCr [6]	Caco-2 Papp (Caco-2)	other results
Cc1cc(C#N)cc(C)c1Oc1nc(Nc2ccc(C#N)cc2)nc(N)c1Br [etravirine]	–	–	–	–	–	–	–	–	–	–	–	–	–	–	–	–	–	> 5	–	–	–
CC1(C)CCC(CN2CCN(c3ccc(C(=O)NS(=O)(=O)c4ccc(NCC5CCOCC5)c([N+](=O)[O-])c4)c(Oc4cnc5[nH]ccc5c4)c3)CC2)=C(c2ccc(Cl)cc2)C1 [venetoclax]	–	–	–	–	–	–	–	–	–	–	–	–	–	–	–	–	–	> 5	–	–	–
Cc1ccc(-c2cc(C(F)(F)F)nn2-c2ccc(S(N)(=O)=O)cc2)cc1 [Celecoxib]	1.7	1.7	0.069	–	37 ± 1	–	6.7 ± 0.4 10–^3 μg/cm^2/s	18 ± 2 10^–5 cm/s	62 ± 1 µg/mL	–	11 ± 1 10–^3 μg/cm^2/s	18 ± 1 10^–5 cm/s	20	2.2	67	25	3.5	3.5	1.6	18 [56] 10^–6 cm/s	Solubility, Blank FaSSIF [9]: 3.2 µg/mL (≈ 8.39 µM); Solubility, FaSSIF [9]: 46.2 µg/mL (≈ 121 µM); Solubility, FeSSIF [9]: 103 µg/mL (≈ 270 µM); fu ([2]; FeSSIF): 0.031; Food effect predicted by the GUT framework [10]: 2.3
COc1cc(F)c(C(C)C)cc1-c1ccc(C(F)(F)F)cc1CN1C(=O)O[C@H](c2cc(C(F)(F)F)cc(C(F)(F)F)c2)[C@@H]1C [anacetrapib]	–	–	–	–	–	–	–	–	–	–	–	–	–	–	–	–	–	> 5	–	–	–
Cc1cn(-c2cc(NC(=O)c3ccc(C)c(Nc4nccc(-c5cccnc5)n4)c3)cc(C(F)(F)F)c2)cn1.Cl [nilotinib HCl]	–	–	–	–	–	–	–	–	–	–	–	–	–	–	–	–	–	> 5	–	–	–

Further lines, with some results ahead:

Ratio (fed/fasted) CD,final [2]	Ratio (fed/fasted) JμFLUX [2]	fraction unbound [2, 11]	fraction unbound [2, 12]	CD,final ([2]; donor FaSSIF pH 6.5) [µg/mL]	Pep,u,μFLUX ([2]; donor FaSSIF)	JμFLUX ([2]; donor FaSSIF)	Peff,μFLUX ([2]; donor FaSSIF)	CD,final ([2]; donor FeSSIF pH 6.5)	Pep,u,μFLUX ([2]; donor FeSSIF)	JμFLUX ([2]; donor FeSSIF)	Peff,μFLUX ([2]; donor FeSSIF)	Time after which CD reached a plateau [2] [min]	Ratio (fed/fasted) Sdissolv [3]	Dose number, Fasted [4]	Dose number, Fed [4]	logDoct,pH 6.5 [8]	Structure (SMILES)	logPoct [1]	Ratio (fed/fasted) AUCr [6]	Caco-2 Papp (Caco-2)	other results
3.1	0.81	0.6	0.26	72 ± 0	17 ± 2 10^–5 cm/s	7.4 ± 0.7 10–^3 μg/cm^2/s	10 ± 1 10^–5 cm/s	220 ± 0^ h μg/mL	10 ± 1 10^–5 cm/s	6.0 ± 0.7 10–^3 μg/cm^2/s	2.7 ± 0.3 10^–5 cm/s	20	2.3	20	7	2.3	CCc1c(Cl)c(O)c(Cl)c(O)c1C(=O)O[C@H]1[C@H](O)[C@H](OC)[C@H](OC/C2=C\C=C\C[C@H](O)/C(C)=C/[C@H](CC)[C@@H](O[C@@H]3OC(C)(C)[C@@H](OC(=O)C(C)C)[C@H](O)[C@@H]3O)/C(C)=C/C(C)=C/C[C@@H]([C@@H](C)O)OC2=O)O[C@@H]1C [Fidaxomicin]	3.7	1.0	–	kdiss ([2]; Fasted): 0.0002967 s⁻¹; Pep,u,μFLUX less in the fed condition than in the fasted condition ([2]; FeSSIF vs FaSSIF): about 40%; kdiss ([2]; Fed): 0.0007389 s⁻¹; solubility at 72 h [3, 13]: 77 ± 1 µg/mL (≈ 72.8 µM); solubility at 72 h [3, 14]: 178 ± 2 µg/mL (≈ 168 µM); solubility at 72 h [3, 15]: 46 ± 1 µg/mL (≈ 43.5 µM); Dn ([4]; Fasted): 3.7; Do ([4]; Fasted): 20; Pep ([4]; Fasted): 0.055 10^-6 cm/s; Pep' ([4]; Fasted): 0.55 10^-6 cm/s; Dn ([4]; Fed): 9.3; Do ([4]; Fed): 7.2; Pep ([4]; Fed): 0.024 10^-6 cm/s; Pep' ([4]; Fed): 0.24 10^-6 cm/s; fraction unbound [4]: 0.6; pKa ([5]; acidic pKa, read-out: pKa (A)): 5.15; Pep,u ([7]; Fed): 0.092 10^-6 cm/s
–	–	–	–	–	–	–	–	–	–	–	–	–	–	–	–	2.6	CO[C@H]1/C=C/O[C@@]2(C)Oc3c(C)c(O)c4c(O)c(c5c(nc6cc(C)ccn65)c4c3C2=O)NC(=O)/C(C)=C\C=C\[C@H](C)[C@H](O)[C@@H](C)[C@@H](O)[C@@H](C)[C@H](OC(C)=O)[C@@H]1C [Rifaximin]	–	–	1 [55] 10^–6 cm/s	solubility at 72 h [3, 13]: 3.4 µg/mL (≈ 4.33 µM); solubility at 72 h [3, 14]: 12 µg/mL (≈ 15.3 µM); solubility at 72 h [3, 15]: 1.8 µg/mL (≈ 2.29 µM); pKa ([5]; acidic pKa, read-out: pKa (A)): < 2; pKa ([5]; basic pKa, read-out: pKa (B)): 8.29
–	–	0.011	0.0043	–	–	–	–	–	–	–	–	–	–	43	14	4.5	C#C[C@]1(O)CC[C@H]2[C@@H]3CCC4=Cc5oncc5C[C@]4(C)[C@H]3CC[C@@]21C [Danazol]	4.5	–	–	–
20	2.4	0.038	0.004	56 ± 1	10 ± 2 10^–5 cm/s	0.20 ± 0.05 10–^3 μg/cm^2/s	0.37 ± 0.09 10^–5 cm/s	1100 ± 0^ h μg/mL	10 ± 4 10^–5 cm/s	0.47 ± 0.16 10–^3 μg/cm^2/s	0.043 ± 0.015 10^–5 cm/s	–	9.1	20	2	–	O=C(Nc1cccc2c(=O)cc(-c3nnn[nH]3)oc12)c1ccc(OCCCCc2ccccc2)cc1 [Pranlukast]	–	1.3	0.08 [54] 10^–6 cm/s	Solubility, Blank FaSSIF [9]: 3 µg/mL (≈ 6.23 µM); Solubility, FaSSIF [9]: 88 µg/mL (≈ 183 µM); Solubility, FeSSIF [9]: 800 µg/mL (≈ 1660 µM); Bound to bile micelles ([2]; FeSSIF): 99.6%; fu ([2]; FeSSIF): 0.0041
1.9	0.91	0.73	0.34	49 ± 0	18 ± 2 10^–5 cm/s	6.7 ± 0.8 10–^3 μg/cm^2/s	14 ± 2 10^–5 cm/s	95 ± 0 µg/mL	19 ± 1 10^–5 cm/s	6.1 ± 0.2 10–^3 μg/cm^2/s	6.4 ± 0.2 10^–5 cm/s	20	2.1	23	9	2.2	COc1ccccc1Oc1c(NS(=O)(=O)c2ccc(C(C)(C)C)cc2)nc(-c2ncccn2)nc1OCCO [Bosentan]	3.8	1.1	1 [52] 10^–6 cm/s	kdiss ([2]; Fasted): 0.0004708 s⁻¹; kdiss ([2]; Fed): 0.0007219 s⁻¹; solubility at 72 h [3, 13]: 41 ± 1 µg/mL (≈ 74.3 µM); solubility at 72 h [3, 14]: 87 ± 1 µg/mL (≈ 158 µM); solubility at 72 h [3, 15]: 30 ± 1 µg/mL (≈ 54.4 µM); Dn ([4]; Fasted): 5.9; Do ([4]; Fasted): 23; Pep ([4]; Fasted): 0.73 10^-6 cm/s; Pep' ([4]; Fasted): 7.3 10^-6 cm/s; Dn ([4]; Fed): 9.1; Do ([4]; Fed): 9.2; Pep ([4]; Fed): 0.34 10^-6 cm/s; Pep' ([4]; Fed): 3.4 10^-6 cm/s; fraction unbound [4]: 0.73; pKa ([5]; acidic pKa, read-out: pKa (A)): 4.87; Pep,u ([7]; Fasted): 1 10^-6 cm/s; Pep,u ([7]; Fed): 1 10^-6 cm/s

Reference: PMC12592319, “Predicting Food Effect On Oral Drug Absorption For Solubility-Epithelial Membrane Permeation-Limited Cases With Bile Micelle Solubilization” (Pharmaceutical Research, 2025)
